Values belong to the compound of their own block, whether it stands above or below them.
Key:
[1] = molecular target: RAC-beta serine/threonine-protein kinase (Homo sapiens, UniProt P31751); set-up: species or system Sf9
[2] = molecular target: RAC-gamma serine/threonine-protein kinase (Homo sapiens, UniProt Q9Y243); set-up: species or system Sf9
[3] = Solubility of the compound; assay type: physicochemical
[4] = in vitro; details: human, liver microsomes
[5] = in vitro; details: male, Beagle, dog, liver microsomes
[6] = in vitro; details: female, Beagle, dog, liver microsomes
[7] = in vitro; details: male, CD-1, mouse, liver microsomes
[8] = in vitro; details: female, CD-1, mouse, liver microsomes
[9] = Cmax in rat at 5 mg/kg administered as single dose; assay type: ADME, organism-based; set-up: dose 5 mg/kg; details: in vivo
[10] = Tmax in rat at 5 mg/kg administered as single dose; assay type: ADME, organism-based; details: in vivo
[11] = test system: Mus musculus; assay: In vivo inhibition of AKT1 phosphorylation at Thr308 in human AN3CA cells xenografted in NCr-M nude mouse at 100 mg/kg, po after 1 hr by Western blot analysis; assay type: functional; details: AN3-CA
[12] = test system: Mus musculus; assay: In vivo inhibition of AKT1 phosphorylation in human AN3CA cells xenografted in NCr-M nude mouse assessed as inhibition of PRAS40 phosphorylation at Thr246 at 100 mg/kg, po after 1 hr by Western blot analysis; assay type: functional; details: AN3-CA
[13] = Drug uptake in NCr-M nude mouse tumor xenografted with human AN3CA cells at 100 mg/kg, po after 8 hr; assay type: ADME, organism-based, Neoplasm; details: read-out: Drug uptake
[14] = test system: Mus musculus; assay: In vivo inhibition of AKT1 phosphorylation at Ser473 in human AN3CA cells xenografted in NCr-M nude mouse at 100 mg/kg, po after 1 hr by Western blot analysis; assay type: functional; details: AN3-CA
[15] = test system: Mus musculus; assay: In vivo inhibition of AKT1 phosphorylation at Thr308 in human AN3CA cells xenografted in NCr-M nude mouse at 200 mg/kg, po after 1 hr by Western blot analysis; assay type: functional; details: AN3-CA
[16] = AUC (infinity) in rat at 5 mg/kg administered as single dose; assay type: ADME, organism-based; set-up: dose 5 mg/kg, time infinity; details: in vivo
[17] = test system: Mus musculus; assay: In vivo inhibition of AKT1 phosphorylation at Ser473 in human AN3CA cells xenografted in NCr-M nude mouse at 100 mg/kg, po after 8 hrs by Western blot analysis; assay type: functional; details: AN3-CA
[18] = test system: Mus musculus; assay: In vivo inhibition of AKT1 phosphorylation in human AN3CA cells xenografted in NCr-M nude mouse assessed as inhibition of PRAS40 phosphorylation at Thr246 at 200 mg/kg, po after 1 hr by Western blot analysis; assay type: functional; details: AN3-CA
[19] = Tmax in monkey at 10 mg/kg administered as single dose; assay type: ADME, organism-based, Macaca mulatta; details: rhesus monkey, in vivo
[20] = Drug uptake in NCr-M nude mouse plasma xenografted with human AN3CA cells at 100 mg/kg, po after 8 hr; assay type: ADME, organism-based
[21] = Drug uptake in NCr-M nude mouse tumor xenografted with human AN3CA cells at 100 mg/kg, po after 1 hr; assay type: ADME, organism-based, Neoplasm; details: read-out: Drug uptake
[22] = Oral bioavailability in monkey at 10 mg/kg administered as single dose; assay type: ADME, organism-based, Macaca mulatta; details: rhesus monkey, in vivo
[23] = test system: Mus musculus; assay: In vivo inhibition of AKT1 phosphorylation in human AN3CA cells xenografted in NCr-M nude mouse assessed as inhibition of PRAS40 phosphorylation at Thr246 at 200 mg/kg, po after 8 hrs by Western blot analysis; assay type: functional; details: AN3-CA
[24] = Drug uptake in NCr-M nude mouse plasma xenografted with human AN3CA cells at 200 mg/kg, po after 8 hr; assay type: ADME, organism-based
[25] = Half life in rat at 5 mg/kg administered as single dose; assay type: ADME, organism-based; details: in vivo
[26] = Oral bioavailability in rat at 5 mg/kg administered as single dose; assay type: ADME, organism-based; details: in vivo
[27] = Oral bioavailability in mouse at 100 mg/kg; assay type: ADME, organism-based; details: in vivo
[28] = Drug uptake in NCr-M nude mouse plasma xenografted with human AN3CA cells at 200 mg/kg, po after 1 hr; assay type: ADME, organism-based
[29] = test system: Mus musculus; assay: In vivo inhibition of AKT1 phosphorylation in human AN3CA cells xenografted in NCr-M nude mouse assessed as inhibition of PRAS40 phosphorylation at Thr246 at 100 mg/kg, po after 8 hrs by Western blot analysis; assay type: functional; details: AN3-CA
[30] = AUC (infinity) in monkey at 10 mg/kg administered as single dose; assay type: ADME, organism-based, Macaca mulatta; set-up: dose 10 mg/kg, time infinity; details: rhesus monkey, in vivo
[31] = test system: Mus musculus; assay: In vivo inhibition of AKT1 phosphorylation at Thr308 in human AN3CA cells xenografted in NCr-M nude mouse at 200 mg/kg, po after 8 hrs by Western blot analysis; assay type: functional; details: AN3-CA
[32] = Drug uptake in NCr-M nude mouse tumor xenografted with human AN3CA cells at 200 mg/kg, po after 1 hr; assay type: ADME, organism-based, Neoplasm; details: read-out: Drug uptake
[33] = test system: Mus musculus; assay: In vivo inhibition of AKT1 phosphorylation at Ser473 in human AN3CA cells xenografted in NCr-M nude mouse at 200 mg/kg, po after 8 hrs by Western blot analysis; assay type: functional; details: AN3-CA
[34] = test system: Mus musculus; assay: In vivo inhibition of AKT1 phosphorylation at Ser473 in human AN3CA cells xenografted in NCr-M nude mouse at 200 mg/kg, po after 1 hr by Western blot analysis; assay type: functional; details: AN3-CA
[35] = Drug uptake in NCr-M nude mouse tumor xenografted with human AN3CA cells at 200 mg/kg, po after 8 hr; assay type: ADME, organism-based, Neoplasm; details: read-out: Drug uptake
[36] = Drug uptake in NCr-M nude mouse plasma xenografted with human AN3CA cells at 100 mg/kg, po after 1 hr; assay type: ADME, organism-based
[37] = test system: Mus musculus; assay: In vivo inhibition of AKT1 phosphorylation at Thr308 in human AN3CA cells xenografted in NCr-M nude mouse at 100 mg/kg, po after 8 hrs by Western blot analysis; assay type: functional; details: AN3-CA
[38] = Half life in monkey at 10 mg/kg administered as single dose; assay type: ADME, organism-based, Macaca mulatta; details: rhesus monkey, in vivo
[39] = Cmax in monkey at 10 mg/kg administered as single dose po; assay type: ADME, organism-based, Macaca mulatta; set-up: dose 10 mg/kg, route oral; details: rhesus monkey, in vivo

Chain of RAC-beta serine/threonine-protein kinase (P31751 whole entry): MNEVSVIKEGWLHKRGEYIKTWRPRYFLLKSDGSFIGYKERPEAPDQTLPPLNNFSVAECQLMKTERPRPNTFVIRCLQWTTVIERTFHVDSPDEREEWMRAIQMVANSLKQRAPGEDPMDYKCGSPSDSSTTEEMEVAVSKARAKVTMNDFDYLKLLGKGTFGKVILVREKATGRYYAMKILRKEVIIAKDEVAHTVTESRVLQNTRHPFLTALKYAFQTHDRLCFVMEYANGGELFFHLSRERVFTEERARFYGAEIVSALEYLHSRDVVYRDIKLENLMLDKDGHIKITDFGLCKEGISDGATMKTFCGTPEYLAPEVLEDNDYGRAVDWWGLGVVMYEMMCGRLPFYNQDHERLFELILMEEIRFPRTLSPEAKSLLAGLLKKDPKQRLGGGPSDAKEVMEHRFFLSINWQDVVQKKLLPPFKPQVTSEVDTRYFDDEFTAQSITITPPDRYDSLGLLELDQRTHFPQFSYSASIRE
Chain of RAC-gamma serine/threonine-protein kinase (Q9Y243 whole entry): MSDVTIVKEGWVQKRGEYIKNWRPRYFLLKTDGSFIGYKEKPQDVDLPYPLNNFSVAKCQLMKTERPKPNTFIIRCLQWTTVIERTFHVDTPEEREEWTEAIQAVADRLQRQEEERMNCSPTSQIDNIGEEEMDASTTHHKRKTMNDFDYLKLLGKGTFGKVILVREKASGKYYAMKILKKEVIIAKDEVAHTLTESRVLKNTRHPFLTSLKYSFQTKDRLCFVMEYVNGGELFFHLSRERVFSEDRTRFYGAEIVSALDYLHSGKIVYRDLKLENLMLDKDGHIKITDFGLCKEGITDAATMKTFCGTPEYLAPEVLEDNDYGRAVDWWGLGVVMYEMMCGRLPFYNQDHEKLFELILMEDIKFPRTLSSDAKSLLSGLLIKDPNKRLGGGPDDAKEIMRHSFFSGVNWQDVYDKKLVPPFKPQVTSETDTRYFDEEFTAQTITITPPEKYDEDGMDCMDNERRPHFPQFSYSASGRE

Compound: CC(=O)Nc1cccc(-c2ccc3nc(-c4cccnc4N)n(-c4ccc(C5(N)CCC5)cc4)c3n2)c1.Cl
half-life at 1 µM [5]: > 60 min | solubility [3]: 160 µM | half-life at 1 µM [6]: 50 min | half-life at 1 µM [7]: > 60 min | half-life at 1 µM [4]: > 60 min | half-life at 1 µM [8]: > 60 min

Compound: Cl.Nc1ncccc1-c1nc2ccc(-c3ccccc3)nc2n1-c1ccc(C2(N)CCC2)cc1
Cmax [9]: 198 ng/mL | Tmax [10]: 480 min | inhibition in vivo at 100 mg/kg [11]: 95% | inhibition in vivo at 100 mg/kg [12]: 57.7% | half-life at 1 µM [5]: 31 min | concentration at 8 h [13]: 9.6 µM | inhibition in vivo at 100 mg/kg [14]: 99.2% | inhibition in vivo at 200 mg/kg [15]: 93.3% | AUC(0-inf) [16]: 5500 ng·h/mL | inhibition in vivo at 100 mg/kg [17]: 98.6% | inhibition in vivo at 200 mg/kg [18]: 50.5% | Tmax [19]: 258 min | concentration at 8 h [20]: 0.26 µM | solubility [3]: 170 µM | half-life at 1 µM [6]: 28 min | half-life at 1 µM [7]: 17 min | concentration at 1 h [21]: 21 µM | bioavailability [22]: 49% | inhibition in vivo at 200 mg/kg [23]: 42.5% | concentration at 8 h [24]: 1 µM | half-life [25]: 1020 min | bioavailability [26]: 62% | bioavailability [27]: 23% | concentration at 1 h [28]: 2.7 µM | inhibition in vivo at 100 mg/kg [29]: 35.9% | AUC(0-inf) [30]: 2960 ng·h/mL | inhibition in vivo at 200 mg/kg [31]: 90.8% | concentration at 1 h [32]: 35.8 µM | inhibition in vivo at 200 mg/kg [33]: 99.7% | inhibition in vivo at 200 mg/kg [34]: 99.2% | half-life at 1 µM [4]: 55 min | concentration at 8 h [35]: 27.4 µM | half-life at 1 µM [8]: 18 min | concentration at 1 h [36]: 2.1 µM | inhibition in vivo at 100 mg/kg [37]: 96.3% | half-life [38]: 420 min | Cmax [39]: 258 ng/mL

Compound: Cl.Nc1ncccc1-c1nc2ccc(-c3cccnc3)nc2n1-c1ccc(C2(N)CCC2)cc1
half-life at 1 µM [5]: > 30 min | solubility [3]: 178 µM | half-life at 1 µM [6]: 21 min | half-life at 1 µM [7]: 31 min | half-life at 1 µM [4]: > 30 min | half-life at 1 µM [8]: 37 min

Compound: CC(=O)Nc1cccc(-c2ccc3nc(-c4cccnc4N)n(-c4ccc(CN)cc4)c3n2)c1.Cl
half-life at 1 µM [5]: > 60 min | solubility [3]: ≥ 200 µM | half-life at 1 µM [6]: > 60 min | half-life at 1 µM [7]: > 60 min | half-life at 1 µM [8]: 45 min

Compound: Cl.Nc1cccc(-c2ccc3nc(-c4cccnc4N)n(-c4ccc(C5(N)CCC5)cc4)c3n2)c1
half-life at 1 µM [5]: > 60 min | solubility [3]: 138 µM | half-life at 1 µM [6]: > 60 min | half-life at 1 µM [7]: > 60 min | half-life at 1 µM [4]: > 60 min | half-life at 1 µM [8]: > 60 min

Now from value to compound:

IC50 [1]: 16 µM | IC50 [2]: 71 µM
Compound: CC(C)(C)c1ccc(-n2c(-c3cccnc3N)nc3cccnc32)cc1

solubility [3]: 188 µM | half-life at 1 µM [4]: 39 min
Compound: Cl.NCc1ccc(-n2c(-c3cccnc3N)nc3ccc(-c4ccccc4)nc32)cc1

IC50 [1]: 9.3 µM | IC50 [2]: > 100 µM
Compound: NCc1ccc(-n2c(-c3cccnc3N)nc3cccnc32)cc1

IC50 [1]: 20 µM | IC50 [2]: > 100 µM
Compound: Cc1ccc(-n2c(-c3cccnc3N)nc3cccnc32)cc1

IC50 [1]: 3.5 µM | IC50 [2]: > 10 µM
Compound: NCc1ccc(-n2c(-c3cccnc3N)nc3cc(-c4cccnc4)cnc32)cc1

IC50 [2]: > 10 µM
Compound: Cc1cnc2c(c1)nc(-c1cccnc1N)n2-c1ccc(CN)cc1
